Test results: paper PMC11374673, “Discovery of isoquinoline sulfonamides as allosteric gyrase inhibitors with activity against fluoroquinolone-resistant bacteria” (Nature Chemistry, 2024)
Several values for one entry are separate records, joined by “and”; a condition that tells them apart may be missing. Equal values may be shown once. Entries after “also recorded” stand apart in the source; their conditions may differ.

Tests used:
E. coli gyrase [1] = biological target: T1, E. coli gyrase (Escherichia coli, UniProt P0AES4); experiment: Time course of CIP- and Ca2+-mediated DNA cleavage; assay type: biochemical; details: 5 µM LEI-800
T1 sequence (P0AES4 whole entry): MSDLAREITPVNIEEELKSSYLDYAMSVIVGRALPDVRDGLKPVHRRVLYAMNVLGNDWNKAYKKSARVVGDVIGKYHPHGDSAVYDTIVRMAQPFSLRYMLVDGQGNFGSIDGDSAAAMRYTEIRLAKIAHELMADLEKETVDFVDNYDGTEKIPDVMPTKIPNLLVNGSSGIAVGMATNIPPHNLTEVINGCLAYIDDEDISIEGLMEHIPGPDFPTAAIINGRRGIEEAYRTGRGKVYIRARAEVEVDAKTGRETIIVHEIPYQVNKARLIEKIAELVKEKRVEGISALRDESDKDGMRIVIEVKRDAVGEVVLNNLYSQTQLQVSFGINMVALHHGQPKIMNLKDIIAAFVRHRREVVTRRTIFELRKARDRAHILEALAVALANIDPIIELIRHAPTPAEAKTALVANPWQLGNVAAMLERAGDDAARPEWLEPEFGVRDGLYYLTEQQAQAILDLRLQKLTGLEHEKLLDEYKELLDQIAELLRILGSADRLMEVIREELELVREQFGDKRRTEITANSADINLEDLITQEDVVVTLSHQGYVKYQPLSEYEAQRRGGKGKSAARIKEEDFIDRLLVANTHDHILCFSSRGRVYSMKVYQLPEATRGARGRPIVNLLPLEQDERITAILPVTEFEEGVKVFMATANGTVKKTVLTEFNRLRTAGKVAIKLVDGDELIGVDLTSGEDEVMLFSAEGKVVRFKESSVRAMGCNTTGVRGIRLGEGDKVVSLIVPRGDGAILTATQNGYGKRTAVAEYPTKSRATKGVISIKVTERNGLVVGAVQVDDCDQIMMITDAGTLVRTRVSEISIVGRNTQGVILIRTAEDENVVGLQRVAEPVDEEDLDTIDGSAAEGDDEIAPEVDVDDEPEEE
Method: Time courses of CIP- and Ca^2+-mediated DNA cleavage were performed based on a previously published protocol. E. coli gyrase (200 nM) was incubated at 25 °C in 360 µl reactions with assay buffer (35 mM Tris–HCl (pH 7.5), 24 mM KCl, 4 mM MgCl2, 2 mM DTT, 1.8 mM spermidine, 1 mM ATP, 6.5% (wt/vol) glycerol and 0.1 mg ml^−1 albumin) and 500 ng supercoiled pBR322 DNA (Inspiralis Ltd.). For CIP-induced cleavage, 5 µM […] into the master mix. For Ca^2+-induced cleavage, the assay buffer was supplemented with 5 mM CaCl2. […] At selected timepoints, 30 µl aliquots were withdrawn and stopped by an addition of 3 µl 2% SDS and 3 µl 100 mM EDTA. After the time course, aliquots were treated with proteinase K (0.5 mg ml^−1) for 30 min at 37 °C and extracted with 30 µ chloroform:isoamyl alcohol solution (24:1 vol/vol). The aqueous layers from the assays were mixed with 30 µl STEB and run on 1% agarose TAE gels with 10 µg ml^−1 ethidium bromide at 80 V. Gels were visualized and analysed as described for the supercoiling inhibition assays.

P. aeruginosa gyrase = biological target: T2, P. aeruginosa gyrase (Pseudomonas aeruginosa, UniProt P48372); experiment: Gyrase supercoiling inhibition; assay type: biochemical
T2 construct: purchased Inspiralis Ltd. PAG1001
T2 sequence (P48372 whole entry): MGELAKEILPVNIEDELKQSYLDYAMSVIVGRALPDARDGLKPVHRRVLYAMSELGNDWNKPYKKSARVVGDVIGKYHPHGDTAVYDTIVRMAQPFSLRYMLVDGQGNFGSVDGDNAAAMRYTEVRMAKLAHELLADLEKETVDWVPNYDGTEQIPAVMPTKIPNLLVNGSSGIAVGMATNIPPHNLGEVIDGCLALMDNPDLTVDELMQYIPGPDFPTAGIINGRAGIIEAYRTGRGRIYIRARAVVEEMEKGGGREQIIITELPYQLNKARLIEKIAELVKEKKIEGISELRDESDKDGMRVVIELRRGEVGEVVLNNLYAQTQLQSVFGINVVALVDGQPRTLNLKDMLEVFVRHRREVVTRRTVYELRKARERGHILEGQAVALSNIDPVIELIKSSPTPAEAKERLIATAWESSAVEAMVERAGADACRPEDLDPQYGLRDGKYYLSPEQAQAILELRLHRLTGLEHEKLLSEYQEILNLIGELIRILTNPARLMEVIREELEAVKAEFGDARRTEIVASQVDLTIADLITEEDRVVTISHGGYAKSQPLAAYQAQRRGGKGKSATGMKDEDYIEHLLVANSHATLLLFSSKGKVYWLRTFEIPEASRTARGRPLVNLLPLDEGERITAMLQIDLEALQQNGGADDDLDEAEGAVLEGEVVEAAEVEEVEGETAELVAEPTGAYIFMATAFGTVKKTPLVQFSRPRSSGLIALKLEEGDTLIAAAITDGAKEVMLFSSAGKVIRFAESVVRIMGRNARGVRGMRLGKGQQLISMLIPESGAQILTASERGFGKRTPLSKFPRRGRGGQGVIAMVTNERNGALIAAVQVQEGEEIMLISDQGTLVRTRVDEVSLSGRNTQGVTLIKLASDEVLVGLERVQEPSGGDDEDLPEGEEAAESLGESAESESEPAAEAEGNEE
T2 sequence (Q9I7C2 whole entry, further chain): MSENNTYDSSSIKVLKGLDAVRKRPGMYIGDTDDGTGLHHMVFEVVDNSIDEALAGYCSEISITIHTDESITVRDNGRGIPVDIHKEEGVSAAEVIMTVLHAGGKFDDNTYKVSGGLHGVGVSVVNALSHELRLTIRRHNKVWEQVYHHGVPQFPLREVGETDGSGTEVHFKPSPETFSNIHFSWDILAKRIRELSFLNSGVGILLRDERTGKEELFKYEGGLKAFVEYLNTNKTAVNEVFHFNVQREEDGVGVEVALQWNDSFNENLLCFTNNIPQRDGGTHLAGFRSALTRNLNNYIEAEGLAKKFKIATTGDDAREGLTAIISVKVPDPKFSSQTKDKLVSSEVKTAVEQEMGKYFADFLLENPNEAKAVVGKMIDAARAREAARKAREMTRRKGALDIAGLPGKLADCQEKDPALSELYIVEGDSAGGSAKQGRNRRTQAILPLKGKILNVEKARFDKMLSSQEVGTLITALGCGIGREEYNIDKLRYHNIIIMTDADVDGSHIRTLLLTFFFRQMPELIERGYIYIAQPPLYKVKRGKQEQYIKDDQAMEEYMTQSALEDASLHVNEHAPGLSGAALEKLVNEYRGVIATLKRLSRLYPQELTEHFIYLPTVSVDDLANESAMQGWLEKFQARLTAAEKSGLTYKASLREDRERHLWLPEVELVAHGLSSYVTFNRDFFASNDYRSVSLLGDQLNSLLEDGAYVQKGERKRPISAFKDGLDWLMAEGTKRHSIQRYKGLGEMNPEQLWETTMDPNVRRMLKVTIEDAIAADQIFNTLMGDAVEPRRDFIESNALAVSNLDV
Method: (§1) Of this stock solution, 27 µl was aliquoted for each reaction in 1.5 ml Eppendorf tubes and supplemented with 0.6 µl of the appropriate compound dilution or corresponding solvent with a final DMSO concentration of 2%. The reactions were started with 3 µl of enzyme (1 U for WT gyrase retrieved from Inspiralis Limited or 25–30 nM gyrase variants purified in house) in dilution buffer (50 mM Tris–HCl (pH 7.5), 100 mM KCl, 2 mM DTT, 1 mM EDTA and 50% (wt/vol) glycerol) for a final volume of 30 µl. Reactions were run at 37 °C for 30 min and stopped with the addition of 30 µl STEB buffer (40% (wt/vol) sucrose, 100 mM Tris–HCl pH 8, 100 mM EDTA, 0.5 mg ml^−1 bromophenol blue) and 30 µl of a chloroform:isoamyl alcohol solution (24:1 vol/vol). After brief vortexing and centrifugation at 2,300g for 1 min, 20 µl of the aqueous phase was loaded onto 1% (wt/vol) agarose gels in TAE (Tris–acetate […]) gel. The gels were run at 85 V for 2 h followed by staining (15 min) in 1 µg ml^−1 ethidium bromide and destaining (5–10 min) in water. DNA was visualized (602/50, UV Trans, auto optimal exposure) with a ChemiDoc MP (Bio-Rad Laboratories Inc., equipped with ImageLab Touch Software v2.0.0.27) and the percentage of supercoiled DNA relative to the total amount material per lane was determined with ImageLab 6.1 software (Bio-Rad Laboratories Inc.) or ImageJ[47] software. […]

E. coli W3110 = experiment: Time-kill assay
Method: From glycerol stocks, bacterial strains were cultured on blood agar plates by overnight incubation at 37 °C. Subsequently, a single colony was cultured in TSB overnight at 37 °C. The culture was diluted 100-fold in fresh CAMHB and grown until early exponential phase (OD600 of 0.25) followed by 100-fold dilution in media. The culture was split in separate culture tubes containing 2 ml. […] The supernatant was discarded and pellets were washed once with filter-sterilized PBS, then resuspended in an equal volume of fresh buffer and samples were tenfold serially diluted until a 10^5 dilution. Then, 10 µl of the appropriate dilutions were inoculated on LB agar plates in technical duplicates, subsequently allowed to evaporate and incubated at 37 °C for 18 h. The colonies were counted and used to calculate the colony forming unit (c.f.u.) per ml remaining in the original culture by taking the dilution factors into account. The experiment was performed in biological duplicates.

E. coli gyrase [2] = biological target: T1, E. coli gyrase; experiment: ATP-independent relaxation inhibition; assay type: biochemical; details: 200 nM gyrase
Method: E. coli relaxation inhibition assays were conducted in a similar manner to supercoiling inhibition assays with the following modifications: spermidine and ATP were omitted from the assay buffer, supercoiled plasmid (pBR322) was used as DNA substrate and 200 nM E. coli gyrase was added to each reaction. After stopping each reaction with STEB, 3 µl 2% SDS was added and tubes were vigorously vortexed before loading the aqueous phase onto the gel.

(UniProt Q2FCU6) = experiment: Gyrase supercoiling inhibition; assay type: biochemical, Acinetobacter baumannii; details: read-out: IC50 supercoiling, A. baumannii gyrase
Method: as §1

sheep blood cells = experiment: Haemolytic activity; assay type: cell-based; details: 20 h incubation with sheep blood cells
Method: Whole defibrinated sheep blood (10631715, Fisher Scientific) was centrifuged (400g) for 15 min at 4 °C. The supernatant was discarded and the remaining blood cell suspension was mixed with PBS and centrifuged (400g) for 15 min at 4 °C. Washing cycles were repeated at least three times, until the supernatant was clear after centrifugation. The packed blood cells were diluted 25-fold in PBS with 0.002% polysorbate 80. Test compounds were serially diluted twofold in U-bottom polypropylene 96-well microtitre plates in PBS with 0.002% polysorbate 80 (75 µl). An equal volume (75 µl) of the blood cell suspension was added to all wells. […]. The well plates were incubated for 20 h at 37 °C with continuous shaking (500 r.p.m.). After incubation, plates were centrifuged (800g) for 5 min, and 25 µl of supernatant was transferred to a clear UV-star flat-bottom polystyrene 96-well plate containing 100 µl ultrapure water per well. Absorption was measured at 415 nm with a Spark multimode microplate reader (Tecan). Data were corrected for the background response of 0.5% DMSO in the presence of cells with no antibiotic and normalized using the absorbance of 0.1% Triton X-100 with blood cells, as 100% haemolytic activity.

## O=S(=O)(NC[C@@H]1CC[C@H](c2ccc(-c3cccnc3)cc2)N1)c1cccc2cnccc12 [LEI-800]
E. coli gyrase [1]; 5 µM CIP
  CIP-mediated DNA cleavage: amount of cleaved DNA is reduced; also recorded: clear inhibition
E. coli gyrase [1]; 5 mM Ca2+
  Ca2+-mediated DNA cleavage: amount of cleaved DNA is reduced; also recorded: strongly inhibited
P. aeruginosa gyrase
  IC50: 96 nM
E. coli W3110; 4xMIC, 0.5 h, n = 1 and n = 2
  time kill kinetics, bacterial count: 5.021 and 5.23
E. coli W3110; 4xMIC, 1 h
  time kill kinetics, bacterial count: 5.061 and 4.929
E. coli W3110; 4xMIC, 2 h
  time kill kinetics, bacterial count: 5.041 and 5.176
E. coli W3110; 4xMIC, 4 h
  time kill kinetics, bacterial count: 3.061 and 3.243
E. coli W3110; 4xMIC, 8 h
  time kill kinetics, bacterial count: 2 and 2.778
E. coli W3110; 4xMIC, 24 h
  time kill kinetics, bacterial count: 5.176 and 4.875
E. coli W3110; 8xMIC, 0.5 h
  time kill kinetics, bacterial count: 5.243 and 5.021
E. coli W3110; 8xMIC, 1 h
  time kill kinetics, bacterial count: 4.431 and 4.732
E. coli W3110; 8xMIC, 2 h
  time kill kinetics, bacterial count: 4.903 and 5
E. coli W3110; 8xMIC, 4 h
  time kill kinetics, bacterial count: 3.13 and 3.079
E. coli W3110; 8xMIC, 8 h
  time kill kinetics, bacterial count: 2.301 and 2
E. coli W3110; 8xMIC, 24 h
  time kill kinetics, bacterial count: 1.99
E. coli W3110; at higher concentrations
  bactericidal activity: bactericidal
E. coli gyrase [2]
  ATP-independent supercoiling relaxation: inhibited
(UniProt Q2FCU6)
  IC50: 103 nM
Sheep blood cells
  haemolytic activity: no haemolytic activity
